Results as given in the NIST ThermoML archive (doi:10.1021/acs.jced.6b00280).
Numbers after ± are expanded uncertainties.

What was measured:
[1] = for mass density: 298.15 K, 101.33 kPa, Pycnometric method
[2] = refractive index (Na D-line) (dimensionless); settings: 298.15 K; 101.33 kPa; Liquid; Standard Abbe refractometry

mass density ([1]; Crystal) [kg/m3] | Normal melting temperature ([1]; Crystal, visual observation) [°C] | SMILES | mass density ([1]; Liquid) [kg/m3] | refractive index [2]
– | – | CO [methanol] | 786.1 ± 2 | 1.3264 ± 0.0004
1346 ± 2 | 106.10 ± 1.6 | Oc1ccccc1O [1,2-benzenediol] | – | –
– | – | CCCCOC(C)=O [butyl ethanoate] | 873.1 ± 2 | 1.393 ± 0.0004
